Measurements: patent US20260210856A1, “CONJUGATED OLIGOELECTROLYTES WITH BORON-DIPYRROMETHENE CORES AND METHODS THEREOF” (National University of Singapore, priority 2022, published 2026)

What was measured:
[1] = Photophysical properties in PBS and in SUVs (POPC:POPG 85:15); format: physicochemical; details: for FWHM: fluorescence spectra, intercalated within SUVs; for fluorescence intensity increase upon inserting into lipid bilayers: relative to the values measured in PBS
Description: The photophysical properties of the COE-BY series were studied in phosphate-buffered saline (PBS) and within model lipid bilayers. Small unilamellar vesicles (SUVs) composed of 1-palmitoyl-2-oleoyl-glycero-3-phosphocholine (POPC) and 1-palmitoyl-2-oleoyl-sn-glycero-3-phospho-(1′-rac-glycerol) sodium (POPG) (85:15, mol/mol) were used to simulate the lipid environment in cell membranes. The absorption spectra in PBS for all compounds feature a main peak at ~550 nm, reflecting the presence of the BODIPY subunit (FIG. 9A). One also observes a 5-10 nm red-shift of lowest energy absorption peak with increasing electron-withdrawing strength of the phenyl substituents.
Upon inserting into lipid bilayers, the fluorescence intensity increases over 27-fold for COE-BYPhMe, 30-fold for COE-BYPhOC4, 35-fold for COE-BYPhCN and 40-fold for COE-BYPhNO, relative to the values measured in PBS (FIG. 1c and FIG. S5). The increase in emission intensity reflects a transition to a more rigid and hydrophobic environment. Quantum yields increase to 32% for COE-BYPhMe, 60% for COE-BYPhOC4, 13% for COE-BYPhCN, and 10% for COE-BYPhNO in SUVs from 1% for COE-BYPhMe, 3% for COE-BYPhOC4, and 0.5% for COE-BYPhCN in PBS. The QY of COE-BYPhNO in PBS cannot be accurately determined by using a conventional fluorometer due to its weak fluorescence. The maximum emission wavelengths are redshifted from 587/589 nm (COE-BYPhMe/OC4) to 605/611 nm (COE-BYPhCN/NO) as a result of the decreased HOMO-LUMO energy gaps. […] Furthermore, the fluorescence spectra of COE-BYs intercalated within SUVs show a narrow band at wavelengths between 587 nm and 611 nm, with a full width half maximum (FWHM) linewidth of 52-68 nm (Table 1).

A549 cells = assay: Two-photon fluorescence imaging and FLIM of stained cells; format: cell-based; details: A549, 1 μM, 24 hours
Description: Fluorescence imaging is usually based on the analysis of fluorescence intensity, which is affected by many factors including dye concentration, laser power, the sensitivity of the detector, and sampling time. The main advantage of fluorescence lifetime imaging (FLIM) is independent of the above experimental conditions, especially the local dye concentration gradients, which makes FLIM an ideal method for studies in living cell models. […] The fluorescence lifetime of COE-BYs could be a function of viscosity after calibration. FLIM makes it possible to produce spatial viscosity maps after staining with COE-BYs. A549 cells were stained with COE-BYPhMe and COE-S6 (1 μM) for 24 hours, respectively. The cell samples were analyzed using two-photon fluorescence imaging and FLIM.

[2] = commercial dyes for comparison; cited from earlier work

Compound	FWHM [1] [nm]	ΦF in PBS ([1]; in PBS) [%]	λabs ([1]; in PBS) [nm]	λem in PBS ([1]; in PBS) [nm]	ΦF in SUVs [1] [%]	λem in SUVs [1] [nm]	fluorescence intensity increase upon inserting into lipid bilayers [1] [fold]	lifetimes in phasor plot (A549 cells)	two photon absorption cross section area [2] [GM]
CC1=C(c2ccc(/C=C/c3cc(OCCCCCC[N+](C)(C)C)c(OCCCCCC[N+](C)(C)C)c(OCCCCCC[N+](C)(C)C)c3)cc2)C(C)=[N+]2C1=C(c1ccc(C#N)cc1)c1c(C)c(-c3ccc(/C=C/c4cc(OCCCCCC[N+](C)(C)C)c(OCCCCCC[N+](C)(C)C)c(OCCCCCC[N+](C)(C)C)c4)cc3)c(C)n1[B-]2(F)F.[I-].[I-].[I-].[I-].[I-].[I-] [COE-BYPhCN]	63	0.5	550	618	13	605	> 35	–	–
CC1=C(c2ccc(/C=C/c3cc(OCCCCCC[N+](C)(C)C)c(OCCCCCC[N+](C)(C)C)c(OCCCCCC[N+](C)(C)C)c3)cc2)C(C)=[N+]2C1=C(c1ccc([N+](=O)[O-])cc1)c1c(C)c(-c3ccc(/C=C/c4cc(OCCCCCC[N+](C)(C)C)c(OCCCCCC[N+](C)(C)C)c(OCCCCCC[N+](C)(C)C)c4)cc3)c(C)n1[B-]2(F)F.[I-].[I-].[I-].[I-].[I-].[I-] [COE-BYPhNO]	68	–	556	625	10	611	> 40	–	–
C[N+](C)(C)CCCCCCOc1cc(/C=C/c2ccc(/C=C/c3ccc(/C=C/c4ccc(/C=C/c5ccc(/C=C/c6cc(OCCCCCC[N+](C)(C)C)c(OCCCCCC[N+](C)(C)C)c(OCCCCCC[N+](C)(C)C)c6)cc5)cc4)cc3)cc2)cc(OCCCCCC[N+](C)(C)C)c1OCCCCCC[N+](C)(C)C.[I-].[I-].[I-].[I-].[I-].[I-] [COE-S6]	–	–	–	–	–	–	–	only single area in the phasor plot	–
CCCCCCCCCCCCCCCCCCN1/C(=C/C=C/C2=[N+](CCCCCCCCCCCCCCCCCC)c3ccccc3C2(C)C)C(C)(C)c2ccccc21.[O-][Cl+3]([O-])([O-])[O-] [DiL, carbocyanine DiL]	–	–	–	–	–	–	–	–	10
CCN(CC)c1ccc2c(-c3ccccc3C(=O)O)c3ccc(=[N+](CC)CC)cc-3oc2c1.[Cl-] [Rhodamine B]	–	–	–	–	–	–	–	–	150
